Source: patent publication US20100120789A1, “Compound” (priority 2005, published 2010)

Target: T1, Human 11β-HSD1 (Homo sapiens, UniProt P28845)
Test: 11β-HSD1 HTRF assay (human liver microsome fractions, cortisol by HTRF)
Format: biochemical
Conditions: 10 μM compound; human liver microsomes
Experimental: 11β-HSD1 HTRF Assay Protocol
The 11β-HSD Type 1 assay was carried out at room temperature in 96 well microtitre plates in a total volume of 40 μl. Assay buffer contained 30 mM Tris.HCl, 1 mM EDTA, pH 7.2. Inhibitor compounds were tested at varying concentrations at a final Dimethyl Sulphoxide concentration of 1%. Compounds were usually tested at 10 μM. The substrate mixture contained cortisone, NADPH and glucose-6-phosphate at final concentrations of 1 μM, 180 μM and 1 mM respectively. Assays were started by the addition of 10p1 human liver microsome fractions, 20 mg per ml protein, containing 11β-HSD Type 1, diluted 1 to 40 prior to use. Following mixing microtitre plates were shaken for 30 minutes. Reactions were stopped by the addition of 10 μl 1 mM Glyccheritinnic acid solution. Production of Cortisol was measured by Homogenous Time Resolved Fluorescence using a cortisol assay kit; Cisbio International Cortisol HTRF kit (62CORPEB), following the manufacturer's protocol.

T1 sequence (P28845 whole entry): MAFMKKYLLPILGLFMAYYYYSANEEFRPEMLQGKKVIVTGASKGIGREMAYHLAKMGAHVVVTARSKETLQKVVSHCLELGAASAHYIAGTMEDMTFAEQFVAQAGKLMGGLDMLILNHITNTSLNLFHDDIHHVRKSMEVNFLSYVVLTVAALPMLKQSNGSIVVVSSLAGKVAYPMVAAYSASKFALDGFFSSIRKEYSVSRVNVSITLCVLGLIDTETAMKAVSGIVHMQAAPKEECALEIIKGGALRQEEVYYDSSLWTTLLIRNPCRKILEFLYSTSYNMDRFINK

SMILES | inhibition at 10 µM
O=C(NCCc1ccccn1)C12CC3CC(CC(C3)C1)C2 [compound 1541] | > 60%
O=C(CS(=O)(=O)Cc1ccc(Cl)cc1)C12CC3CC(CC(C3)C1)C2 [compound 1632] | > 60%
Cc1ccc(SCC(=O)C23CC4CC(CC(C4)C2)C3)cc1 [compound 1537] | > 60%
O=S(=O)(NC12CC3CC(CC(C3)C1)C2)c1ccc(-c2ccccc2)cc1 [compound 1344] | 20 to 60%
O=C(NCc1cccs1)C12CC3CC(CC(C3)C1)C2 [compound 1374] | > 60%
Cn1cccc1CNC(=O)C12CC3CC(CC(C3)C1)C2 [compound 1578] | > 60%
O=C(NCCc1cccs1)C12CC3CC(CC(C3)C1)C2 [compound 1375] | > 60%
O=C(CC12CC3CC(CC(C3)C1)C2)NCCc1cccs1 [compound 1570] | > 60%
CN1CCCC1CCNC(=O)C12CC3CC(CC(C3)C1)C2 (stereo not shown) [compound 1597] | > 60%
Cc1nc2c(Cl)c(NC(=O)C34CC5CC(CC(C5)C3)C4)ccc2s1 [compound 1373] | 20 to 60%
Cc1nc2c(NC(=O)CC34CC5CC(CC(C5)C3)C4)c(C)ccc2s1 [compound 1572] | > 60%
O=S(=O)(Cc1ccc(Cl)cc1)NC12CC3CC(CC(C3)C1)C2 [compound 1499] | 20 to 60%
O=S(=O)(NC1C2CC3CC(C2)CC1C3)c1cccs1 (stereo not shown) [compound 1574] | > 60%
COc1ccc(OCC(=O)C23CC4CC(CC(C4)C2)C3)cc1OC [compound 1568] | > 60%
O=C(CNc1ccc(Cl)cc1)C12CC3CC(CC(C3)C1)C2 [compound 1535] | > 60%
O=C(NCCCn1ccnc1)C12CC3CC(CC(C3)C1)C2 [compound 1580] | 20 to 60%
O=C(COc1cc(Cl)ccc1Cl)C12CC3CC(CC(C3)C1)C2 [compound 1618] | > 60%
Cc1ccc(S(=O)(=O)CC(=O)C23CC4CC(CC(C4)C2)C3)cc1 [compound 1562] | > 60%

SMILES | inhibition at 10 µM
Cc1ccc(OCC(=O)C23CC4CC(CC(C4)C2)C3)cc1 [compound 1619] | > 60%
Cc1cnc(CNC(=O)C23CC4CC(CC(C4)C2)C3)cn1 [compound 1545] | > 60%
Cc1nc2c(NC(=O)C34CC5CC(CC(C5)C3)C4)c(C)ccc2s1 [compound 1372] | 20 to 60%
O=C(CS(=O)(=O)c1ccc(Cl)cc1)C12CC3CC(CC(C3)C1)C2 [compound 1539] | > 60%
O=C(C[S+]([O-])Cc1ccc(Cl)cc1)C12CC3CC(CC(C3)C1)C2 (stereo not shown) [compound 1628] | > 60%
CCCc1ccc(S(=O)(=O)NCC23CC4CC(CC(C4)C2)C3)cc1 [compound 1368] | > 60%
O=C(CC12CC3CC(CC(C3)C1)C2)NCc1cccs1 [compound 1564] | > 60%
O=C(C[S+]([O-])c1cc(Cl)ccc1Cl)C12CC3CC(CC(C3)C1)C2 (stereo not shown) [compound 1563] | > 60%
O=C(CSc1cc(Cl)ccc1Cl)C12CC3CC(CC(C3)C1)C2 [compound 1538] | > 60%
Cc1nc2cc(NCC(=O)C34CC5CC(CC(C5)C3)C4)ccc2s1 [compound 1487] | > 60%
O=C(NCc1cccnc1)C12CC3CC(CC(C3)C1)C2 [compound 1542] | > 60%
O=C(COCc1ccc(Cl)cc1)C12CC3CC(CC(C3)C1)C2 [compound 1626] | > 60%
O=C(NCCc1c[nH]c2ccccc12)C12CC3CC(CC(C3)C1)C2 [compound 1581] | > 60%
O=S(=O)(Cc1cccc(Cl)c1)NC12CC3CC(CC(C3)C1)C2 [compound 1500] | 20 to 60%
O=C(NCc1ccccn1)C12CC3CC(CC(C3)C1)C2 [compound 1540] | > 60%
O=C(COc1ccc(-c2ccccc2)cc1)C12CC3CC(CC(C3)C1)C2 [compound 1567] | > 60%
Cn1cnc(CNC(=O)C23CC4CC(CC(C4)C2)C3)c1 [compound 1577] | > 60%
O=C(NCCc1cccnc1)C12CC3CC(CC(C3)C1)C2 [compound 1543] | > 60%

Target: T1, Human 11β-HSD1
Test: 11β-HSD1 HEK assay (whole HEK 293 cells stably transfected with HSD11B1, SPA)
Format: cell-based
Parameters: expressed in transfected cells; host or cells: HEK 293
Conditions: HEK293, read-out: % INHIBITION of Human 11 β-HSD1 at 10 μM (HEK)
Experimental: 11β-HSD1 HEK Assay Protocol (Cell Based Assay)
11β-HSD1 activity is measured in whole HEK 293 cells stably transfected with the HSD11B1 gene. Cells are incubated in 96-well microplates in the presence of tritiated substrate. Enzyme activity is determined by measuring the amount of tritated product by scintillation proximity assay (SPA). Assay plates contain internal high and low controls to allow calculation of percentage inhibition.
2. When the cells are 80% confluent the medium is removed from each well. 100 μl fresh, serum-free, medium containing ^3H-cortisone and test compound in 1% DMSO is added to each well*. Control wells are also dispensed.
3. The plate is incubated at […] for the required time period.
4. 50 μl of media is removed from each well and transferred to a microplate containing 100 μl of a pre-incubated mixture of anti-cortisol antibody and SPA bead. The mixture is incubated with gentle shaking until equilibrium is reached, before transferring to a scintillation counter to establish the enzyme activity in each sample.
10 μl of compound is dispensed into each well of a 96-well microplate in 10% DMSO at 100 μM concentration. 90 μl media containing ^3H-cortisone is added to each well. The compound/media/substrate mixture is then transferred to the assay plate containing the cells.

SMILES | inhibition at 10 µM
O=C(NCCc1ccccn1)C12CC3CC(CC(C3)C1)C2 [compound 1541] | > 60%
O=C(CS(=O)(=O)Cc1ccc(Cl)cc1)C12CC3CC(CC(C3)C1)C2 [compound 1632] | > 60%
Cc1ccc(SCC(=O)C23CC4CC(CC(C4)C2)C3)cc1 [compound 1537] | > 60%
O=S(=O)(NC12CC3CC(CC(C3)C1)C2)c1ccc(-c2ccccc2)cc1 [compound 1344] | 20 to 60%
O=C(NCc1cccs1)C12CC3CC(CC(C3)C1)C2 [compound 1374] | > 60%
Cn1cccc1CNC(=O)C12CC3CC(CC(C3)C1)C2 [compound 1578] | > 60%
O=C(NCCc1cccs1)C12CC3CC(CC(C3)C1)C2 [compound 1375] | > 60%
O=C(CC12CC3CC(CC(C3)C1)C2)NCCc1cccs1 [compound 1570] | > 60%
CN1CCCC1CCNC(=O)C12CC3CC(CC(C3)C1)C2 (stereo not shown) [compound 1597] | < 20%
Cc1nc2c(Cl)c(NC(=O)C34CC5CC(CC(C5)C3)C4)ccc2s1 [compound 1373] | > 60%
Cc1nc2c(NC(=O)CC34CC5CC(CC(C5)C3)C4)c(C)ccc2s1 [compound 1572] | < 20%
O=S(=O)(Cc1ccc(Cl)cc1)NC12CC3CC(CC(C3)C1)C2 [compound 1499] | < 20%
O=S(=O)(NC1C2CC3CC(C2)CC1C3)c1cccs1 (stereo not shown) [compound 1574] | 20 to 60%
COc1ccc(OCC(=O)C23CC4CC(CC(C4)C2)C3)cc1OC [compound 1568] | > 60%
O=C(CNc1ccc(Cl)cc1)C12CC3CC(CC(C3)C1)C2 [compound 1535] | > 60%
O=C(NCCCn1ccnc1)C12CC3CC(CC(C3)C1)C2 [compound 1580] | 20 to 60%
O=C(COc1cc(Cl)ccc1Cl)C12CC3CC(CC(C3)C1)C2 [compound 1618] | > 60%
Cc1ccc(S(=O)(=O)CC(=O)C23CC4CC(CC(C4)C2)C3)cc1 [compound 1562] | > 60%

SMILES | inhibition at 10 µM
Cc1ccc(OCC(=O)C23CC4CC(CC(C4)C2)C3)cc1 [compound 1619] | > 60%
Cc1cnc(CNC(=O)C23CC4CC(CC(C4)C2)C3)cn1 [compound 1545] | 20 to 60%
Cc1nc2c(NC(=O)C34CC5CC(CC(C5)C3)C4)c(C)ccc2s1 [compound 1372] | 20 to 60%
O=C(CS(=O)(=O)c1ccc(Cl)cc1)C12CC3CC(CC(C3)C1)C2 [compound 1539] | 20 to 60%
O=C(C[S+]([O-])Cc1ccc(Cl)cc1)C12CC3CC(CC(C3)C1)C2 (stereo not shown) [compound 1628] | > 60%
CCCc1ccc(S(=O)(=O)NCC23CC4CC(CC(C4)C2)C3)cc1 [compound 1368] | 20 to 60%
O=C(CC12CC3CC(CC(C3)C1)C2)NCc1cccs1 [compound 1564] | > 60%
O=C(C[S+]([O-])c1cc(Cl)ccc1Cl)C12CC3CC(CC(C3)C1)C2 (stereo not shown) [compound 1563] | > 60%
O=C(CSc1cc(Cl)ccc1Cl)C12CC3CC(CC(C3)C1)C2 [compound 1538] | > 60%
Cc1nc2cc(NCC(=O)C34CC5CC(CC(C5)C3)C4)ccc2s1 [compound 1487] | > 60%
O=C(NCc1cccnc1)C12CC3CC(CC(C3)C1)C2 [compound 1542] | > 60%
O=C(COCc1ccc(Cl)cc1)C12CC3CC(CC(C3)C1)C2 [compound 1626] | 20 to 60%
O=C(NCCc1c[nH]c2ccccc12)C12CC3CC(CC(C3)C1)C2 [compound 1581] | > 60%
O=S(=O)(Cc1cccc(Cl)c1)NC12CC3CC(CC(C3)C1)C2 [compound 1500] | < 20%
O=C(NCc1ccccn1)C12CC3CC(CC(C3)C1)C2 [compound 1540] | 20 to 60%
O=C(COc1ccc(-c2ccccc2)cc1)C12CC3CC(CC(C3)C1)C2 [compound 1567] | > 60%
Cn1cnc(CNC(=O)C23CC4CC(CC(C4)C2)C3)c1 [compound 1577] | > 60%
O=C(NCCc1cccnc1)C12CC3CC(CC(C3)C1)C2 [compound 1543] | < 20%

Target: T1, Human 11β-HSD1
Test: as above
Format: cell-based
Parameters: expressed in transfected cells; host or cells: HEK 293
Conditions: HEK293

SMILES | inhibition at 1 µM
NC(=O)c1ccc(COCC(=O)C23CC4CC(CC(C4)C2)C3)cc1 [Compound 17] | 63%
